Test results: patent US8772268B2, “Bisphosphonamidate prodrugs and uses thereof” (The Johns Hopkins University, priority 2010, dated 2014)

What was measured:
Type in all cases: cell-based
PC-3 = assay: NCI-60 DTP Human Tumor Cell Line Screen; details: PC-3, Prostate Cancer, 48 h
[1] = tested on: PIP3 (prostate) cancer cell line; assay: MTS cell proliferation assay, PIP3
Experimental: (§1) Cell proliferation was determined using the CellTiter 96 Aqueous One Solution Cell Proliferation Assay MTS assay. A549 NSCLC cells were plated at 1.5×10^3 cells per well in flat bottom 96 well plates in 99 μL of media and allowed to adhere overnight. The drugs were serially diluted in 100% DMSO. For each drug treatment group, 1 μL of a 100× stock solution was added to each well for a final DMSO concentration of 1%. Cells were treated for 24, 48 or 72 hours. Cells were incubated with MTS dye (20 μL well^−1) for 40 min to 2 h. Absorbance at 490 nm was determined using a SpectraMax M2 (Molecular Devices) plate reader. The percent cell proliferation was calculated by converting the experimental absorbance to percentage of control, which was then plotted vs. drug concentration. The IC50 values were determined using a non-linear dose-response analysis in GraphPad Prism version 4.0. The IC50 is defined as the concentration of drug needed to cause a 50% decrease in proliferation compared to vehicle control.
(§2) The activity of Clodronate prodrug (14) was tested against other cell lines, include prostate (PIP3) and breast (MDA-MB-453) cancer cells lines. Cell proliferation was determined using the CellTiter 96 Aqueous One Solution Cell Proliferation Assay MTS assay as discussed above. Results are shown in FIG. 22 and in the table below.

L1210 = assay: Cytotoxicity, L1210
BT-549 = assay: NCI-60 DTP Human Tumor Cell Line Screen; details: BT-549, Breast Cancer, 48 h
SK-MEL-2 = assay: NCI-60 DTP Human Tumor Cell Line Screen; details: SK-MEL-2, Melanoma, 48 h
K-562 = assay: NCI-60 DTP Human Tumor Cell Line Screen; details: K-562, Leukemia, 48 h
SK-MEL-28 = assay: NCI-60 DTP Human Tumor Cell Line Screen; details: SK-MEL-28, Melanoma, 48 h
A549/ATCC = assay: NCI-60 DTP Human Tumor Cell Line Screen; details: Non-Small Cell Lung Cancer, 48 h
UACC-62 = assay: NCI-60 DTP Human Tumor Cell Line Screen; details: UACC-62, Melanoma, 48 h
SK-MEL-5 = assay: NCI-60 DTP Human Tumor Cell Line Screen; details: SK-MEL-5, Melanoma, 48 h
OVCAR-4 = assay: NCI-60 DTP Human Tumor Cell Line Screen; details: OVCAR-4, Ovarian Cancer, 48 h
SF-268 = assay: NCI-60 DTP Human Tumor Cell Line Screen; details: SF-268, CNS Cancer, 48 h
HS 578T = assay: NCI-60 DTP Human Tumor Cell Line Screen; details: Breast Cancer, 48 h
KM12 = assay: NCI-60 DTP Human Tumor Cell Line Screen; details: KM12, Colon Cancer, 48 h
UACC-257 = assay: NCI-60 DTP Human Tumor Cell Line Screen; details: UACC-257, Melanoma, 48 h
TK-10 = assay: NCI-60 DTP Human Tumor Cell Line Screen; details: TK-10, Renal Cancer, 48 h
CCRF-CEM = assay: NCI-60 DTP Human Tumor Cell Line Screen; details: Leukemia, 48 h
MDA-MB-468 = assay: NCI-60 DTP Human Tumor Cell Line Screen; details: MDA-MB-468, Breast Cancer, 48 h
OVCAR-8 = assay: NCI-60 DTP Human Tumor Cell Line Screen; details: OVCAR-8, Ovarian Cancer, 48 h
[2] = tested on: MDA-MB-453 (breast) cancer cell line; assay: MTS cell proliferation assay, MDA-MB-453
Experimental: as §1, §2

HT29 = assay: NCI-60 DTP Human Tumor Cell Line Screen; details: HT29, Colon Cancer, 48 h
T-47D = assay: NCI-60 DTP Human Tumor Cell Line Screen; details: Breast Cancer, 48 h
A498 = assay: NCI-60 DTP Human Tumor Cell Line Screen; details: A498, Renal Cancer, 48 h
M14 = assay: NCI-60 DTP Human Tumor Cell Line Screen; details: M14, Melanoma, 48 h
LOX IMVI = assay: NCI-60 DTP Human Tumor Cell Line Screen; details: Melanoma, 48 h
DU145 = assay: NCI-60 DTP Human Tumor Cell Line Screen; details: DU145, Prostate Cancer, 48 h

In the case of `CN(CCCCCl)P(=O)(OCc1ccc([N+](=O)[O-])cc1)C(Cl)(Cl)P(=O)(OCc1ccc([N+](=O)[O-])cc1)N(C)CCCCCl` (stereo not drawn) [compound 14], the Log10GI50 (PC-3) is reported as −5.44, the Log10LC50 (PC-3) is reported as over −4.00 and the Log10TGI (PC-3) is reported as over −4.00. The EC50 [1] was 3 µM, the IC50 (L1210) was 11.7 ± 1.78 µM and the Log10GI50 (BT-549) was −5.50. It also gave a Log10LC50 (BT-549) of over −4.00, a Log10TGI (BT-549) of −5.03 and a Log10GI50 (SK-MEL-2) of −5.60. The Log10LC50 (SK-MEL-2) was over −4.00, the Log10TGI (SK-MEL-2) was −5.18 and the Log10GI50 (K-562) was −5.45. The Log10LC50 (K-562) was over −4.00, the Log10TGI (K-562) was over −4.00 and the Log10GI50 (SK-MEL-28) was −5.42. The Log10LC50 (SK-MEL-28) was over −4.00, the Log10TGI (SK-MEL-28) was over −4.00 and the Log10GI50 (A549/ATCC) was −5.37. For the same compound, the Log10LC50 (A549/ATCC) was over −4.00, the Log10TGI (A549/ATCC) was over −4.00 and the Log10GI50 (UACC-62) was −5.70. The Log10LC50 (UACC-62) was −4.11, the Log10TGI (UACC-62) was −5.30 and the Log10GI50 (SK-MEL-5) was −5.69. The Log10LC50 (SK-MEL-5) was −5.05, the Log10TGI (SK-MEL-5) was −5.37 and the Log10GI50 (OVCAR-4) was −5.54. For the same compound, the Log10LC50 (OVCAR-4) was over −4.00, the Log10TGI (OVCAR-4) was over −4.00 and the Log10GI50 (SF-268) was −5.55. The Log10LC50 (SF-268) was over −4.00, the Log10TGI (SF-268) was over −4.00 and the Log10GI50 (HS 578T) was −5.53. For the same compound, the Log10LC50 (HS 578T) was over −4.00, the Log10TGI (HS 578T) was −5.04 and the Log10GI50 (KM12) was −5.46. The Log10LC50 (KM12) was over −4.00, the Log10TGI (KM12) was over −4.00 and the Log10GI50 (UACC-257) was −5.56. For the same compound, the Log10LC50 (UACC-257) was over −4.00, the Log10TGI (UACC-257) was −5.10 and the Log10GI50 (TK-10) was −5.35. For the same compound, the Log10LC50 (TK-10) was over −4.00, the Log10TGI (TK-10) was over −4.00 and the Log10GI50 (CCRF-CEM) was −5.50. It also gave a Log10LC50 (CCRF-CEM) of over −4.00, a Log10TGI (CCRF-CEM) of over −4.00 and a Log10GI50 (MDA-MB-468) of −5.58. For the same compound, the Log10LC50 (MDA-MB-468) was over −4.00, the Log10TGI (MDA-MB-468) was −5.07 and the Log10GI50 (OVCAR-8) was −5.38. The Log10LC50 (OVCAR-8) was over −4.00, the Log10TGI (OVCAR-8) was over −4.00 and the EC50 [2] was 9 µM. The Log10GI50 (HT29) was −5.48, the Log10LC50 (HT29) was over −4.00 and the Log10TGI (HT29) was −4.65. The Log10GI50 (T-47D) was −5.27, the Log10LC50 (T-47D) was over −4.00 and the Log10TGI (T-47D) was over −4.00. For the same compound, the Log10GI50 (A498) was −5.74, the Log10LC50 (A498) was over −4.00 and the Log10TGI (A498) was −5.17. The Log10GI50 (M14) was −5.40, the Log10LC50 (M14) was over −4.00 and the Log10TGI (M14) was over −4.00. For the same compound, the Log10GI50 (LOX IMVI) was −5.75, the Log10LC50 (LOX IMVI) was −4.26 and the Log10TGI (LOX IMVI) was −5.33. It also gave a Log10GI50 (DU145) of −5.40, a Log10LC50 (DU145) of over −4.00 and a Log10TGI (DU145) of over −4.00.
